This note sets out measurements from patent US9655887B2, “Pharmaceutical composition and the use thereof, and application regime of said pharmaceutical composition for on-demand contraception” (BAYER PHARMA AKTIENGESELLSCHAFT, priority 2013, dated 2017).

Marks after values point to notes of the source that are not given here.

For assay [1], the system named is fertilizability of oocytes or cumulus-oocyte complexes. Kind of assay: In-vivo effect on postovulatory in-vitro fertilization in the mouse (2-cell embryos). Details: species or system mice (strain: B6D2F1). The note with it: vehicle 36.3 ± 9.5. The text has this:
7. In-Vivo Effect on Postovulatory In-Vitro Fertilization in the Mouse
Substances can influence fertility by lowering fertilizability of oocytes or cumulus-oocyte complexes. To examine such effects, substances can be administered in vivo and, after ovulation of cumulus-oocyte complexes, the latter are subjected to in-vitro fertilization. The in-vitro fertilization rate in the absence of test substance allows conclusions to be drawn on the in-vivo effects of the test substances.
Immature female mice (strain: B6D2F1, Charles River, Suelzfeld, age: 19-25 days) were kept in Makrolon cages in rooms with controlled lighting (12 hours of darkness: 12 hours of light), fed with a standard diet and provided with water ad libitum.
The mice were primed with PMSG (Pregnant Mare Serum Gonadotropin) (10 IU/animal i.p.). After 48 hours, by administration of 10 IU/animal i.p., an ovulation-triggering stimulus (hCG, human Chorion Gonadotropin) was generated in the animals. EP2 receptor antagonists were dissolved in benzyl benzoate/castor oil (1+4 v/v) and administered in a volume of 0.1 ml s.c. 1 hour prior to hCG (n=5 animals per group). The COX inhibitor was suspended in a carrier liquid (85 mg of Myrj®53 polyoxyl(50)stearate; CAS No. 9004-99-3) in 100 ml of 0.9% w/v NaCl solution), and the appropriate dose was administered in a volume of 2 ml/kg of body weight orally 1 hour prior to hCG. Fourteen hours after administration of hCG, the animals were sacrificed. Ovulated oocytes and cumulus-oocyte complexes were obtained from the ovarii bursa and/or the oviduct and subjected to in-vitro fertilization, with a sperm number of 40 000 sperms/0.5 ml for 1 hour being used for fertilization. Twenty-four hours after incubation with the sperms, the number of fertilized oocytes and the number of 2-cell embryos per animal were determined.

Assay [2] has as its target EP2 subtype of the human PGE2 receptor (hEP2 receptor) (Homo sapiens, UniProt P43116). Kind of assay: cAMP antagonism test, human prostaglandin E2 (subtype EP2) receptor signal. Type of assay: cell-based. In a few lines:
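Cells (625000 cells/ml, mixed with cAMP-d2) were preincubated 20 min at RT with compound ([…]). They were then stimulated 60 min at RT with a 3× PGE2 solution (1.5 nM) in PBS-IBMX and lysed for 20 min. cAMP was read by HTRF as the 665/620 nm ratio ×10000, with antagonism seen as a rise in FRET signal.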

The subject of assay [3] is fertilizability of ovulated cumulus-oocyte complexes. Kind of assay: In-vivo action on post-ovulatory in-vitro fertilization. Details: species or system mice (strain: B6D2F1). The note with it: 1-10 mg/kg s.c. The text has this: 4.3 In-Vivo Action on Post-Ovulatory In-Vitro Fertilization:
Substances can exert an influence on fertility by decreasing the fertilizability of oocytes or cumulus-oocyte complexes. In order to study such effects, substances can be administered in vivo and subjected to in vitro fertilization after ovulation of cumulus-oocyte complexes has taken place. The in-vitro fertilization rate, where no test substance is any longer present, allows conclusions as to the in-vivo effects of the test substances.
Immature female mice (strain: B6D2F1, Charles River, Suelzfeld, age: 19-25 days) were kept in Macrolon cages in rooms with controlled illumination (12 hrs darkness: 12 hrs light), fed with a standard diet and provided with drinking water ad libitum.
The mice were primed with PMSG (pregnant mare serum gonadotropin) (10 IU/animal i.p.). After 48 hours, a stimulus triggering ovulation was created in the animals by one administration of 10 IU/animal i.p. (hCG, human chorionic gonadotropin). The test substances were dissolved in benzyl benzoate/castor oil (1+4 v/v) and administered in a volume of 0.1 ml s.c. 1 hour before hCG (n=5 animals per group). Fourteen hours after hCG administration, the animals were killed. […] Twenty-four hours after the incubation with the sperms, the number of fertilized oocytes is established and the percentage fertilization rate determined

For assay [4], the system named is fertility of the female rat. Put plainly: Single administration of EP2 receptor antagonists and COX inhibitors alone or in combination, fertility of the rat (implantation sites). Type of assay: in vivo, female Han Wistar rats. The conditions noted are these: Piroxicam 2 mg/animal.
The mark [5] stands for this setting: single administration in proestrus, 7:00.
The mark [6] stands for this setting: single administration in proestrus, 13:00.
The mark [7] stands for this setting: single administration in proestrus, 18:00, data of n = 5 animals.

Broadly, the IC50 is the concentration at which inhibition is half-maximal.

Sequence of EP2 subtype of the human PGE2 receptor (hEP2 receptor) (P43116 whole entry): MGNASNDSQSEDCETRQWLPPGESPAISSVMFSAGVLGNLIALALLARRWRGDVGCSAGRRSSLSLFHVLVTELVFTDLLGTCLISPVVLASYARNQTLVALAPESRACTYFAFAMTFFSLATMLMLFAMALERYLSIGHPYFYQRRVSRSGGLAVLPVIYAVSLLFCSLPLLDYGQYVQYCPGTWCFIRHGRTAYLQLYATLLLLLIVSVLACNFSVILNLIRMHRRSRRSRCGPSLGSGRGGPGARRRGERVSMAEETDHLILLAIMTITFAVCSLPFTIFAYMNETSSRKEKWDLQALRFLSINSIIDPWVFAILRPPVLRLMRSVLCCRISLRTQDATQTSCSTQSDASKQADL

`Cc1c(C(=O)NCC(F)(F)F)ccc2nn(CC3CCN(C(=O)c4ccc(Oc5ccc(C(F)(F)F)cc5)cc4)CC3)cc12` [Example E126, 4-methyl-N-(2,2,2-trifluoroethyl)-2-[(1-{4-[4-(trifluoromethyl)phenoxy]benzoyl}piperidin-4-yl)methyl]-2H-indazole-5-carboxamide]: the “2-Cell embryos per animal (mean ± SD)” value in assay [1] (E126 0.1 mg/animal s.c. 1 hour prior to hCG) was determined as 30.8 ± 7.3; in assay [1] (E126 0.5 mg/animal s.c. 1 hour prior to hCG), 12.6 ± 3.6. The IC50 in assay [2] was greater than 50 nM.
Turning to `COCCNC(=O)c1ccc2nn(CC3CCN(C(=O)c4ccc(Oc5ccc(C(F)(F)F)cc5)cc4)CC3)cc2c1C` [Example 17, N-(2-methoxyethyl)-4-methyl-2-[(1-{4-[4-(trifluoromethyl)phenoxy]benzoyl}piperidin-4-yl)methyl]-2H-indazole-5-carboxamide], the “influence on the fertilizability of ovulated cumulus-oocyte complexes” value in assay [3] was “dose-dependent influence on the fertilizability of ovulated cumulus-oocyte complexes”.
Turning to `CN1C(C(=O)Nc2ccccn2)=C(O)c2ccccc2S1(=O)=O` [Piroxicam, piroxicam, reference compound], the “2-Cell embryos per animal (mean ± SD)” value in assay [1] (Piroxicam 0.1 mg/animal orally 1 hour prior to hCG) came out at 10.8 ± 3.8. Further, the “Absolute implantations number of 6 animals” value in assay [4] (Table 6.3, proestrus, 12:30) is reported as 71; in assay [4] (setting [5]) it was 81; in assay [4] (setting [6]) it was 68; in assay [4] (setting [7]), 53*. For the same compound, the “Implantations per animal (mean ± SD)” value in assay [4] (Table 6.3, proestrus, 12:30) is listed as 11.8 ± 3.7; in assay [4] (setting [5]), 13.5 ± 1.0; in assay [4] (setting [6]), 11.3 ± 1.6; in assay [4] (setting [7]), 10.6 ± 1.5.
